Results on three compounds are retold here after publication PMC9415638, “Discovery of novel thiazolyl-pyrazolines as dual EGFR and VEGFR-2 inhibitors endowed with in vitro antitumor activity towards non-small lung cancer” (Journal of Enzyme Inhibition and Medicinal Chemistry, 2022).

Each structure is given as a SMILES string.

The subject of one data set is H441 lung cancer cells. Put plainly: Anti-proliferative MTT assay. The following applies: Homo sapiens, NCI-H441, 24 h. (In general: Tetrazolium assays rely on reduction of a dye to a coloured formazan, in cell work by metabolically active cells.)
Data set [1] deals with WI-38 human lung fibroblast cells. As to the kind of experiment: MTT cytotoxicity assay on normal cells. The data set is classed as cell-based. The following applies: Homo sapiens, WI-38; normal lung fibroblasts, MTT, 24 h, n = 3; read-out: IC50 (µM) ± SEM WI-38. The procedure:
All chemicals used in this study were analytical or cell-culture grade.
Cytotoxicity was measured using the MTT assay. […] The medium was aspirated and 150 μL DMSO was added to solubilise MTT formazan crystals. The plates were then shaken, and the optical density was determined at 570 nm using an ELISA plate reader (Model 550, Bio-Rad, Hercules, CA). At least three independent experiments were performed.

In data set [2] the target is T1, recombinant human VEGFR-2/KDR (Homo sapiens, UniProt P35968).
T1 construct: purchased
T1 sequence (P35968 20-1356): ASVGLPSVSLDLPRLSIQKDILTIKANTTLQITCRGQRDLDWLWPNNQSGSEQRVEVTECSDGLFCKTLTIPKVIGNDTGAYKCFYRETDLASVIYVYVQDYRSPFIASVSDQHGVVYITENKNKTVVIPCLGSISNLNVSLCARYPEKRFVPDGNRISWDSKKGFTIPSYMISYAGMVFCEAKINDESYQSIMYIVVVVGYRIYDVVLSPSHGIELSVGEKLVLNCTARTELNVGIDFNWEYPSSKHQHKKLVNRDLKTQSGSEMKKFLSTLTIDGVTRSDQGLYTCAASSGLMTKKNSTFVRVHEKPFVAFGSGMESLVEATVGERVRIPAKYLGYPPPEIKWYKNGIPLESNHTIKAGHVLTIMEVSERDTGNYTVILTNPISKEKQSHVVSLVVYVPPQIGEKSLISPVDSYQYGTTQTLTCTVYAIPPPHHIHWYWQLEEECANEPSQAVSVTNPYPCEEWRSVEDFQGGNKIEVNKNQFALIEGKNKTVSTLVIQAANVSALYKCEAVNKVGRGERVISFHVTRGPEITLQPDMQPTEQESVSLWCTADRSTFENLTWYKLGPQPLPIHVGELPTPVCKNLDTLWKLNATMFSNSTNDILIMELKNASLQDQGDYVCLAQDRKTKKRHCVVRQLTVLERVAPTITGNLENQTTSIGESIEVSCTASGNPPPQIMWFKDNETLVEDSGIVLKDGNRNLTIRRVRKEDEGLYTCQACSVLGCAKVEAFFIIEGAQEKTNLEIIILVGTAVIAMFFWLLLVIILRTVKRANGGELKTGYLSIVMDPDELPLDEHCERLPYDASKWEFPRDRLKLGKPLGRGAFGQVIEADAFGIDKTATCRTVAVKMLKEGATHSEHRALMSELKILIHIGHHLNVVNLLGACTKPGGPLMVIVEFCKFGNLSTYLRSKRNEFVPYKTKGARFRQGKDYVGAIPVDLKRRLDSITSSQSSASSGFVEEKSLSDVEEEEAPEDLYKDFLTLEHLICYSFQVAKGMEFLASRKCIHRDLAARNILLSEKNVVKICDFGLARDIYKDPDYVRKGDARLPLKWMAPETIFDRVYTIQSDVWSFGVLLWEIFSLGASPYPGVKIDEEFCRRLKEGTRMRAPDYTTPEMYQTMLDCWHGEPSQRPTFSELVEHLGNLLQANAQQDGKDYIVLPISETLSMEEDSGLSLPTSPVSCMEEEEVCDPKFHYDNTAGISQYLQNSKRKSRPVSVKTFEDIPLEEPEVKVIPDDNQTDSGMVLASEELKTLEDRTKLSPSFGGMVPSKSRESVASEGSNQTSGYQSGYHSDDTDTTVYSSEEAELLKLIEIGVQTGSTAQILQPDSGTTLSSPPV
Put plainly: VEGFR-2 kinase assay (VEGFR-2/KDR ELISA kit). The data set is classed as biochemical. The note with it: read-out: IC50 (nM) ± SEM VEGFR-2. The procedure: (§1) The EGFR kinase assay was carried out in 96-well plates coated with PGT (poly l-glutamic acid l-tyrosine, 4:1, Sigma Aldrich, St. Louis, MO) as previously described. IC50 values were calculated using GraphPad Prism 5. Each experiment was carried out at least three times. The VEGFR-2 kinase assay was carried out in 96-well streptavidin coated plate using recombinant human VEGFR-2/KDR ELISA kit according to manufacturer’s instructions.
A general note: In an ELISA, binding on a coated surface is turned into a signal by an enzyme label.

The next data set has as its system A549 lung cancer cells. Put plainly: Anti-proliferative MTT assay. The note with it: Homo sapiens, A549, 24 h.
For another data set, the target named is EGFR (Homo sapiens, UniProt P00533). As to the kind of experiment: EGFR kinase assay (PGT-coated 96-well plates). The data set is classed as biochemical. The note with it: read-out: IC50 (nM) ± SEM EGFR. The procedure:
as §1

The subject of data set [3] is BT-549 breast cancer cells. As to the kind of experiment: Anti-proliferative MTT assay. The data set is classed as cell-based. The note with it: Homo sapiens, 24 h, read-out: % Growth inhibition ± SEM BT-549. The procedure:
(§2) To evaluate the anti-proliferative activity of the synthesised thiazolyl-pyrazoline derivatives (7a–7d, 10a–10d, and 13a–13f), a preliminary in vitro one dose (10 µM) anticancer assay was performed. Nine cell lines derived from five tumour subpanels were examined; leukaemia (K562 and KG-1a), breast (MCF-7, BT-549 and HCC70), lung (A549 and H441), colon (HCT116) and liver (HepG2) cancer cell lines. The compounds were added at a single concentration (10 µM) and the cultures were incubated for 24 h, then the per cent growth inhibition (%GI) was calculated.
(§3) Human leukaemia (K562 and KG-1a), breast (MCF-7, BT-549 and HCC70), lung (A549, H441, NCI-H1650 and NCI-H1975), colon (HCT116), liver (HepG2) cancer cell lines and WI-38 human lung fibroblast cell line were obtained from the American Type Culture Collection (ATCC; Manassas, VA) and were cultured in their suitable media containing 10% foetal bovine serum (FBS; Sigma-Aldrich) in a humidified atmosphere with 5% CO2 at 37 °C. Gefitinib and vandetanib were purchased from Sigma-Aldrich. All chemicals used in this study were analytical or cell-culture grade.
(§4) Cytotoxicity was measured using the MTT assay. Human leukaemia (K562 and KG-1a), breast (MCF-7, BT-549 and HCC70), lung (A549, H441, NCI-H1650 and NCI-H1975), colon (HCT116), liver (HepG2) cancer cell lines and WI-38 human lung fibroblast cell line were plated at a density of 1 × 10^4 cells per well in 96-well plates overnight and then treated with the compounds. After 24 h treatment, 20 μL of MTT solution (2 mg/mL in phosphate-buffered saline [PBS]) was added to each well and the cells were cultured for another 4 h at 37 °C. The medium was aspirated and 150 μL DMSO was added to solubilise MTT formazan crystals. The plates were then shaken, and the optical density was determined at 570 nm using an ELISA plate reader (Model 550, Bio-Rad, Hercules, CA). At least three independent experiments were performed. The IC50 values were calculated using GraphPad Prism 5 (Version 5.01, GraphPad Software, San Diego, CA).

For another data set, the system named is KG-1a leukaemia cells. As to the kind of experiment: Anti-proliferative MTT assay. The following applies: Homo sapiens, 24 h, read-out: % Growth inhibition ± SEM KG-1a. The data set is classed as cell-based. The protocol:
as §2, §3, §4

Data set [4] concerns HCT116 colon cancer cells. As to the kind of experiment: Anti-proliferative MTT assay. The data set is classed as cell-based. The following applies: Homo sapiens, HCT-116, 24 h, read-out: % Growth inhibition ± SEM HCT116. The procedure: as §2, §3, §4
Another data set relates to HepG2 liver cancer cells. As to the kind of experiment: Anti-proliferative MTT assay. The note with it: Homo sapiens, 24 h, read-out: % Growth inhibition ± SEM HepG2. The data set is classed as cell-based. The protocol: as §2, §3, §4
The test system of another data set is K562 leukaemia cells. As to the kind of experiment: Anti-proliferative MTT assay. The data set is classed as cell-based. The note with it: Homo sapiens, 24 h, read-out: % Growth inhibition ± SEM K562. The protocol: as §2, §3, §4
The test system of data set [5] is MCF-7 breast cancer cells. Put plainly: Anti-proliferative MTT assay. The data set is classed as cell-based. The note with it: Homo sapiens, MCF7, 24 h, read-out: % Growth inhibition ± SEM MCF-7. The protocol:
as §2, §3, §4

In data set [6] the test system is HCC70 breast cancer cells. As to the kind of experiment: Anti-proliferative MTT assay. The data set is classed as cell-based. The following applies: Homo sapiens, 24 h, read-out: % Growth inhibition ± SEM HCC70. The procedure: as §2, §3, §4
In the next data set the test system is VEGFR-2. Set-up: method as in PMID 30641320. The following applies: Figure 2; cited from earlier work.
The next data set relates to A549 cells. Put plainly: Cell cycle analysis by flow cytometry (7AAD). The data set is classed as cell-based, human. The note with it: A549, 20 µM, 24 h. The protocol: Figure 6. […] (A) Representative cell cycle distribution data are shown by flow cytometric analysis upon incubation with 0 (control), 2.5 or 5 μM of 10b or 10d or with 0 (control), 5 or 20 μM of gefitinib for 24 h. (B) Quantification of cell cycle distribution upon 24 h incubation with 10b or 10d.
DNA content was measured using 7-aminoactinmycin D (7AAD) (Biotium, Inc., Hayward, CA) staining and is commonly used for cell cycle phase analysis as previously described. Apoptosis was evaluated using the annexin V/propidium iodide (PI) staining kit (BioLegend, San Diego, CA) according to the manufacturer’s instructions and as previously described.
In general terms: A flow cytometer gives signals particle by particle.

Chain of EGFR (P00533 25-1210): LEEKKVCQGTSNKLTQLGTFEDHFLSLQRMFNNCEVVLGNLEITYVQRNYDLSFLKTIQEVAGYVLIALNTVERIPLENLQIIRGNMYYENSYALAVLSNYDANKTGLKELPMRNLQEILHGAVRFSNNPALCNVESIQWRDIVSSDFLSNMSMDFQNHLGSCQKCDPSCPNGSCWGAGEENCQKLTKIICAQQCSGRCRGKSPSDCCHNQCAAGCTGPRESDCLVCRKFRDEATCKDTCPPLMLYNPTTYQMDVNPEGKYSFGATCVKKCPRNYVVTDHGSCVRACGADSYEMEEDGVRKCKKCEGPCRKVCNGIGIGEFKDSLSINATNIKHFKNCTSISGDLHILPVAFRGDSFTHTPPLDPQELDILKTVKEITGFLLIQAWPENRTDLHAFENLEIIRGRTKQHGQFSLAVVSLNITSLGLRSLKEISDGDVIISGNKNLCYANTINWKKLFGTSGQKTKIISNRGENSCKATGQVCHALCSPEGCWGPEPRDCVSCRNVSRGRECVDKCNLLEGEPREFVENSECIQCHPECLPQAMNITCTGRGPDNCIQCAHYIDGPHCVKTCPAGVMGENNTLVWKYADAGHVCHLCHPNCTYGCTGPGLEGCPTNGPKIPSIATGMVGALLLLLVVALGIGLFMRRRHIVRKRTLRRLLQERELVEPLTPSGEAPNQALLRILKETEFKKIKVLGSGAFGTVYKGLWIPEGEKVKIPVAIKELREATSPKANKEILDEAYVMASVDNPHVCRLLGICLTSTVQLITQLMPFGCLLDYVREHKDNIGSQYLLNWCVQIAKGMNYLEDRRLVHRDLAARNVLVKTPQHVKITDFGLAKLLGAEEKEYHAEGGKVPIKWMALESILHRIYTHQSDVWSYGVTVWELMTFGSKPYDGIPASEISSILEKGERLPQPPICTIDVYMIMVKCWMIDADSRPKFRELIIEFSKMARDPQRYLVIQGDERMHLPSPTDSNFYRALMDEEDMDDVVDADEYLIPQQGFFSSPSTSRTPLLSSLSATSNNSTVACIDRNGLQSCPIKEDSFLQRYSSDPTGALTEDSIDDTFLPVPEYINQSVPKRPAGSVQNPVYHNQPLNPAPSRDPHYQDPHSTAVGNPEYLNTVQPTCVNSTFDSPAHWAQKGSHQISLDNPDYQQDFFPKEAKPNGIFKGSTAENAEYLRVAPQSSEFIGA

`COc1ccc(C2CC(c3ccc(Cl)cc3Cl)=NN2c2nc(C)c(N=Nc3ccc(Cl)cc3)s2)cc1OC` (centres unmarked) [Compound 13f, 5-((4-Chlorophenyl)diazenyl)-2-(3-(2,4-dichlorophenyl)-5-(3,4-dimethoxyphenyl)-4,5-dihydro-1H-pyrazol-1-yl)-4-methylthiazole]: the melting point lay within 190 to 191 °C. The inhibition at 10 µM with H441 lung cancer cells (read-out: % Growth inhibition ± SEM H441) was found to be 17.3 ± 0.6%. Besides, the IC50 in the data set on H441 lung cancer cells (read-out: IC50 (µM) ± SEM H441, MTT, 24 h, n = 3) is 24.8 ± 1.4 µM. Besides, in [1], the IC50 was > 100 µM. For the same compound, in [2], the concentration for half-maximal inhibition (IC50) came out at 113 ± 1.8 nM. Also, the inhibition at 10 µM in the data set with A549 lung cancer cells (read-out: % Growth inhibition ± SEM A549) was 47.5 ± 3.1%. Also, the IC50 in the data set with A549 lung cancer cells (read-out: IC50 (µM) ± SEM A549) amounted to 13.7 ± 2.2 µM. The IC50 on EGFR amounted to 107 ± 1.2 nM. In addition, the inhibition at 10 µM in data set [3] stood at 24.6 ± 1.3%. Besides, the inhibition at 10 µM in the data set with KG-1a leukaemia cells was 20 ± 2.8%. In data set [4], the inhibition at 10 µM stood at 0.2%. Further, in the data set on HepG2 liver cancer cells, the inhibition at 10 µM amounted to 0.9 ± 0.3%. Moreover, the inhibition at 10 µM in the data set on K562 leukaemia cells came out at 31.5 ± 1%. For the same compound, the inhibition at 10 µM in data set [5] was 0.8 ± 0.2%. For the same compound, the inhibition at 10 µM in data set [6] was determined as 6.3 ± 1%.

In the case of `CN(C)c1ccc(C2CC(c3c(O)c4ccccc4oc3=O)=NN2c2nc(-c3ccccc3)c(/N=N/c3ccc(Cl)cc3)s2)cc1` (centres unmarked) [Compound IV], in the data set with VEGFR-2, the IC50 was 34 nM.

On to `COc1cc2ncnc(Nc3ccc(F)c(Cl)c3)c2cc1OCCCN1CCOCC1` [Gefitinib, reference compound], for which the “cell cycle arrest phase” value with A549 cells was “significantly arrested the cell cycle at G1 phase”.

The inhibition is the change of the read-out against control, counted positive when it falls. In general, IC50 refers to the point on the concentration scale where inhibition reaches its midpoint. A word on the melting point: it is the temperature of the solid-liquid transition.
